Consider 1 compound from paper PMC3849007 (Journal of Experimental & Clinical Cancer Research : CR, 2013).

This data set deals with anaesthetised guinea pig. In words: Cardiovascular effects in anaesthetised guinea pig. The data set is classed as in vivo. The conditions noted are these: escalating iv doses 0.25, 0.5, 1 mg/kg, 60 min apart. The protocol:
After anaesthesia with approximately 40 to 60 mg/kg (i.p.) sodium pentobarbitone, a jugular vein was cannulated for administration of the vehicle or test substance. Arterial blood pressure (systolic, diastolic and mean) was measured via a catheter inserted into the carotid artery, heart rate was derived electronically from the pressure waveform and a sample of arterial blood determined blood gases (PO2 and PCO2), O2 saturation, standard bicarbonate (HCO3), pH and base excess before the start of the experiment. Electrocardiogram (ECG) limb electrodes recorded the standard lead II configuration and QTcB interval (calculated as QTcB = QT/(√RR)). The animal was allowed to stabilise after completion of the surgical preparation for a period of at least 15 min. Then, after a further 10 min period of continuous recording of ECG and haemodynamic variables, the test substance or vehicle was administered intravenously as 3 iv infusions with each administration separated by 60 min.
Several limitations exist in the use of mouse and rat models for the study of cardiotoxic effects in pharmacology, which regard differences in myocardial function compared to the human heart. […]

As to `Cc1cc2c3c([n+](C)c4ccc(F)cc4c3c1)-c1cc(F)ccc1N2C` [Compound 1, 3,11-Difluoro-6,8,13-trimethyl-8H-quino[4,3,2-kl]acridinium metho-sulfate], the “effect on QTcB interval” value (all doses, listed as RHPS4) was “marked and sustained increase in QTcB interval”. Moreover, for the setting “cumulative 1.75 mg/kg”, the “effect on heart rate” value was “dose-related decrease in heart rate”.
